In US8629173B2, “Solid forms comprising (+)-2-[1-(3-ethoxy-4-methoxyphenyl)-2-methylsulfonylethyl]-4-acetylaminoisoindoline-1,3-dione, compositions thereof, and uses thereof” (Celgene Corporation, priority 2002, dated 2014):
≈ marks a conversion by molar mass, not a printed value.

Experiments:
PDE4 (from U937 cells) = experiment: PDE4 (U937 cell-derived) enzyme assay; type: biochemical, human; conditions: 1 μM cAMP
[1] = target: PDE3 from human platelets (Homo sapiens, UniProt Q14432); experiment: PDE3 enzyme assay; type: biochemical
PDE3 from human platelets, sequence (Q14432 whole entry): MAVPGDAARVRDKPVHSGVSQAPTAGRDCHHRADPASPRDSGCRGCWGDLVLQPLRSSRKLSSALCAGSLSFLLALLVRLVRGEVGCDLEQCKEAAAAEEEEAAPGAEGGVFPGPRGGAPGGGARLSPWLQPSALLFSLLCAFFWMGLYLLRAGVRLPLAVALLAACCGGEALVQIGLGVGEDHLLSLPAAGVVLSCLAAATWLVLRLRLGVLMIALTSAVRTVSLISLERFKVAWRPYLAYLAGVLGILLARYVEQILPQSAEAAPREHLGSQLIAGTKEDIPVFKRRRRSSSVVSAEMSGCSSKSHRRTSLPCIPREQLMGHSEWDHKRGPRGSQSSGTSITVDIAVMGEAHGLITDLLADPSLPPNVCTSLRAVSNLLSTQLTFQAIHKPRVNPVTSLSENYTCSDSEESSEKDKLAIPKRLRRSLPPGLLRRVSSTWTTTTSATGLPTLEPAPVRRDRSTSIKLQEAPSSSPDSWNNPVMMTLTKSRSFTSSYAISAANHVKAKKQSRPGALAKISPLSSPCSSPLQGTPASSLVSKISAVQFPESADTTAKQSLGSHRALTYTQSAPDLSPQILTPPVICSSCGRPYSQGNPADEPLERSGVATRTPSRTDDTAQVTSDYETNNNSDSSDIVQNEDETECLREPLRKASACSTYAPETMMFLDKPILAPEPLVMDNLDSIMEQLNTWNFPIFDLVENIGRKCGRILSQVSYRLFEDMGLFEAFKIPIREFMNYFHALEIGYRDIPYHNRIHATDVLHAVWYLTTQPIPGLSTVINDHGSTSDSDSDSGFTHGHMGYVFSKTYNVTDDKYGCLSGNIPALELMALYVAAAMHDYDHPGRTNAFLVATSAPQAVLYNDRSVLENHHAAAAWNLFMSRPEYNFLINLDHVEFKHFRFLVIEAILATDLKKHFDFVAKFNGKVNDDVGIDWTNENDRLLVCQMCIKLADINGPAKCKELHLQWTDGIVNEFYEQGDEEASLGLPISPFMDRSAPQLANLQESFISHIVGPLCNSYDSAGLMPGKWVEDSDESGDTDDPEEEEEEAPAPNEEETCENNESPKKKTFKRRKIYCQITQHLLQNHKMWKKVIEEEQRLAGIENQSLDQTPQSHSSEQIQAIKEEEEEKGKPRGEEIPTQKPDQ

[2] = target: PDE5 from human platelets (Homo sapiens, UniProt O76074); experiment: PDE5 enzyme assay; type: biochemical
[3] = target: PDE7 purified from Hut78 human T cells (Homo sapiens, UniProt Q13946); experiment: PDE7 enzyme assay; type: biochemical; conditions: 10 nM cAMP
PDE7 purified from Hut78 human T cells, sequence (Q13946 whole entry): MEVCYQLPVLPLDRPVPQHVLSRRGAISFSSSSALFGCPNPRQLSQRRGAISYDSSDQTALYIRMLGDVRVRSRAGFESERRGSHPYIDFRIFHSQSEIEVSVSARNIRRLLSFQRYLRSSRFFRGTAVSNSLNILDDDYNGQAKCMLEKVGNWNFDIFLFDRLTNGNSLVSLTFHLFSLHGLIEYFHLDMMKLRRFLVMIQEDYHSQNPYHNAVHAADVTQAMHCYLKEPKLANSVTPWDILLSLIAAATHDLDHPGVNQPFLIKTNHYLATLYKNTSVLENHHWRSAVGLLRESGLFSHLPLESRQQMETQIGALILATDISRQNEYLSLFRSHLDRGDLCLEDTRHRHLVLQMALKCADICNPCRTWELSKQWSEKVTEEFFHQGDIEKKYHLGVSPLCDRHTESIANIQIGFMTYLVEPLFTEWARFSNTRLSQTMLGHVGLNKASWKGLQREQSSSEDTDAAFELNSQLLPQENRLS
Description: PDE7 is a cAMP-selective PDE expressed mainly in T cells and in skeletal muscle. T cell-derived cytokines such as IL-2 and IFN-γ are potentially regulatable via PDE7 inhibition. […] Compounds were tested against the PDE7 preparation in the presence of 10 nM cAMP as described for PDE4 in Table 1.

[4] = tested on: Zymosan-induced IL-8 production in human neutrophils; experiment: Zymosan-induced IL-8 production; type: cell-based; conditions: Neutrophil, 18 hours
Description: Zymosan A, or the heat-killed yeast Saccharomyces cerevisiae, binds to the adhesion molecule Mac-1 on the neutrophil surface and triggers phagocytosis, cell activation and IL-8 production. Zymosan-induced IL-8 production was measured as previously described (Au et al., 1998, Brit. J. Pharm., 123:1260-1266) with the following modifications. Human neutrophils were purified as described above, plated in 96-well tissue culture plates at 3×10^5 cells/well in complete medium, treated with compounds at 10, 2, 0.4, 0.08, 0.016, 0.0032, 0.00064, and 0 μM in duplicate in a final DMSO concentration of 0.1% for 1 hour at 37° C. 5% CO2. Neutrophils were then stimulated with unopsonized, boiled Zymosan A (Sigma) at 2.5×10^5 particles/well for 18 hours. Supernatants were harvested and tested for IL-8 by ELISA (R&D Systems).

[5] = tested on: CD18 expression on neutrophils; experiment: fMLF-induced CD18 expression on neutrophils; type: cell-based; conditions: Neutrophil; human neutrophils, 30 nM fMLF
Description: (§1) CD18/CD11b (Mac-1) expression on neutrophils was measured as previously described (Derian et al., 1995, J. Immunol., 154:308-3 17) with the following modifications. Neutrophils were isolated as described above, then resuspended in complete medium at 1×10^6 cells/ml, pretreated with compounds at 10, 1, 0.1, 0.01, and 0 μM in duplicate at a final DMSO concentration of 0.1% for 10 minutes at 37° C. 5% CO2. Cells were then stimulated with 30 nM fMLF for 30 minutes and then chilled to 4° C. Cells were treated with rabbit IgG (Jackson ImmunoResearch Labs, West Grove, Pa., USA) (10 μg/1×10^6 cells) to block Fc receptors, stained with CD18-FITC and CD11b-PE (Becton Dickinson), and analyzed by flow cytometry on a FACSCalibur. CD18/CD11b expression (mean fluorescence) in the absence of stimulation was subtracted from all samples to obtain inhibition curves and calculate IC50 values.

[6] = tested on: CD11b expression on neutrophils; experiment: fMLF-induced CD11b expression on neutrophils; type: cell-based; conditions: Neutrophil; human neutrophils, 30 nM fMLF
Description: as §1

[7] = tested on: neutrophil adhesion to HUVEC; experiment: fMLF-induced adhesion to HUVEC; type: cell-based; conditions: human neutrophils, 500 nM fMLF
Description: Human umbilical vein endothelial cells (HUVEC) were used as a substrate for neutrophil adhesion as previously described (Derian et al., 1995, J. Immunol., 154:308-317) with the following modifications. HUVEC cells were obtained from Anthrogenesis (Cedar Knolls, N.J., USA), and neutrophils were not treated with cytochalasin B. Cells were treated with compounds at 10, 1, 0.1, 0.01, 0.001, and 0 μM in a final DMSO concentration of 0.1% in duplicate for 10 minutes, stimulated with 500 nM fMLF for 30 minutes, and washed twice with PBS before measuring fluorescence on an FLX800 plate reader (Bio-Tek Instruments, Winooski, Vt., USA).

[8] = tested on: LPS-induced neutrophilia in the lungs of conscious ferrets; experiment: LPS-induced lung neutrophilia ferret model; type: in vivo; conditions: Mustela putorius, po, read-out: Inhibition of LPS-induced neutrophilia (ED50)
[9] = pH 7.4
physchem = conditions: pH 7.4, aqueous buffer, thermodynamic from solid
[10] = tested on: severe plaque-type psoriasis; experiment: Phase 2 open-label pilot study in patients with severe plaque-type psoriasis
[11] = 20 mg orally daily for 29 days plus follow-up
[12] = 20 mg orally daily, 29 days, 17 evaluable
[13] = 20 mg orally daily, Day 29, 8 responders
[14] = 20 mg orally daily, Day 29, 19 enrolled
[15] = 20 mg orally daily, Day 29, of enrolled patients
[16] = Nonresponder, 20 mg orally daily

CCOc1cc(C(CS(C)(=O)=O)N2C(=O)c3cccc(NC(C)=O)c3C2=O)ccc1OC (single isomer, unassigned; (+)) [Compound A, (+)-2-[1-(3-ethoxy-4-methoxyphenyl)-2-methylsulfonylethyl]-4-acetylaminoisoindoline-1,3-dione]
IC50 (PDE4 (from U937 cells)): 73.5 nM | PDE Specificity Ratio PDE4/PDE3 ([1]; from Table 1 data): >1200 fold | inhibition at 10 µM ([1]; read-out: PDE3 (% inhib at 10 μM)): 20% | PDE Specificity Ratio PDE4/PDE5 ([2]; from Table 1 data): >30000 fold | inhibition at 10 µM ([2]; read-out: PDE5 (% inhib at 10 μM)): 3% | IC50 [3]: 20.5 µM | IC50 [4]: 94 nM | IC50 [5]: 390 nM | IC50 [6]: 74 nM | IC50 [7]: 150 nM | ED50 [8]: 0.8 mg/kg | aqueous solubility relative to the racemic mixture [9]: 3.5 fold | solubility (physchem): 12 µg/mL (≈ 26.1 µM) | patients with abnormal HLA-DR that had normal HLA-DR at Day 29 ([10]; 20 mg orally daily): Two | patients with abnormal ICAM-1 at baseline that had normal ICAM-1 at Day 29 ([10]; 20 mg orally daily): Three | patients with abnormal K16 at baseline that had normal K16 at Day 29 ([10]; 20 mg orally daily): one | patients with abnormal fillagrin at baseline that had normal fillagrin at Day 29 ([10]; 20 mg orally daily): three | treatment-related adverse event: headache ([10]; 20 mg orally daily for 29 days): 26.3% | treatment-related adverse event: nausea ([10]; 20 mg orally daily for 29 days): 15.8% | deaths [10, 11]: No deaths | premature discontinuation due to an adverse event [10, 11]: nor did any patient prematurely discontinue due to an adverse event | patients with evaluable biopsies demonstrating a 20% reduction in epidermal skin thickness ([10]; 20 mg orally daily for 29 days, Day 29, 15 evaluable): 53.3% | evaluable patients demonstrating improvement in static Physician's Global Assessment (sPGA) [10, 12]: 52.9% | evaluable patients showing a reduction from baseline in psoriasis body surface area (BSA) [10, 12]: 58.8% | mean reduction from baseline in dermal CD83+ cells in responders ([10]; 20 mg orally daily, Day 29): 25.86% | mean reduction from baseline in epidermal CD83+ cells in responders ([10]; 20 mg orally daily, Day 29): 32.50% | reduction of CD11c cells in the dermis in responders ([10]; 20 mg orally daily, Day 29): 18.50% | reduction of CD11c cells in the epidermis in responders ([10]; 20 mg orally daily, Day 29): 40.16% | decrease of dermal T-cells in responders [10, 13]: 28.79% | decrease of epidermal T-cells in responders [10, 13]: 42.56% | enrolled subjects demonstrating improvement in PASI [10, 14]: 73.7% | patients showing >50% reduction from baseline in total PASI score [10, 14]: 15.8% | mean reduction of epidermal thickness ([10]; 20 mg orally daily, Day 29, all 15 evaluable subjects, p=0.015): 20.5% | enrolled patients showing a reduction from baseline in psoriasis BSA [10, 15]: 52.6% | enrolled patients showing an improvement in sPGA [10, 15]: 47.4% | overall safety ([10]; 20 mg p.o. QD for 29 days): safe | Percentage Reduction at Day 29: CD11c, Dermis [10, 16]: −21.19% | Percentage Reduction at Day 29: CD11c, Epidermis [10, 16]: −2.54% | Percentage Reduction at Day 29: CD83+, Dermis [10, 16]: +0.46% | Percentage Reduction at Day 29: CD83+, Epidermis [10, 16]: −16.31% | Percentage Reduction at Day 29: T-cells, Dermis [10, 16]: −17.34% | Percentage Reduction at Day 29: T-cells, Epidermis [10, 16]: +8.74% | Percentage Reduction at Day 29: CD11c, Dermis ([10]; Responder, 20 mg orally daily): −18.50% | Percentage Reduction at Day 29: CD11c, Epidermis ([10]; Responder, 20 mg orally daily): −40.16% | Percentage Reduction at Day 29: CD83+, Dermis ([10]; Responder, 20 mg orally daily): −25.86% | Percentage Reduction at Day 29: CD83+, Epidermis ([10]; Responder, 20 mg orally daily): −32.50% | Percentage Reduction at Day 29: T-cells, Dermis ([10]; Responder, 20 mg orally daily): −28.79% | Percentage Reduction at Day 29: T-cells, Epidermis ([10]; Responder, 20 mg orally daily): −42.56% | reduction of mRNA expression of iNOS in lesional skin (RT-PCR) ([10]; after 29 days of treatment, 20 mg orally daily, p=0.025): 66.5%
